Measured values published in patent US10155760B2, “Biaryl kinase inhibitors” (BRISTOL-MYERS SQUIBB COMPANY, priority 2014, dated 2018).

How the values were obtained:
GST-Xa-hAAK1 = GST-Xa-hAAK1 (Homo sapiens (Human), UniProt Q2M2I8); assay: AAK1 Kinase Assay; assay type: biochemical; conditions: ATP 22 μM; GST-Xa-hAAK1 3.5 nM; 3 hours at room temperature
Description: The assays were performed in U-bottom 384-well plates. […] The reactions were initiated by the combination of bacterially expressed, GST-Xa-hAAK1 with substrates and test compounds. The reactions were incubated at room temperature for 3 hours and terminated by adding 60 μl of 35 mM EDTA buffer to each sample. The reactions were analyzed on the Caliper LabChip 3000 (Caliper, Hopkinton, Mass.) by electrophoretic separation of the fluorescent substrate and phosphorylated product. […] Compounds were dissolved at 10 mM in dimethylsulfoxide (DMSO) and evaluated at eleven concentrations. IC50 values were derived by non-linear regression analysis.

HCV [1] = conditions: Huh-7.5 cells; cited from earlier work
HCV [2] = conditions: Huh-7.5 cells; cited from earlier work; remark: listed apart in the source
PC12 cells = conditions: cited from earlier work

GST-Xa-hAAK1, sequence (Q2M2I8 whole entry): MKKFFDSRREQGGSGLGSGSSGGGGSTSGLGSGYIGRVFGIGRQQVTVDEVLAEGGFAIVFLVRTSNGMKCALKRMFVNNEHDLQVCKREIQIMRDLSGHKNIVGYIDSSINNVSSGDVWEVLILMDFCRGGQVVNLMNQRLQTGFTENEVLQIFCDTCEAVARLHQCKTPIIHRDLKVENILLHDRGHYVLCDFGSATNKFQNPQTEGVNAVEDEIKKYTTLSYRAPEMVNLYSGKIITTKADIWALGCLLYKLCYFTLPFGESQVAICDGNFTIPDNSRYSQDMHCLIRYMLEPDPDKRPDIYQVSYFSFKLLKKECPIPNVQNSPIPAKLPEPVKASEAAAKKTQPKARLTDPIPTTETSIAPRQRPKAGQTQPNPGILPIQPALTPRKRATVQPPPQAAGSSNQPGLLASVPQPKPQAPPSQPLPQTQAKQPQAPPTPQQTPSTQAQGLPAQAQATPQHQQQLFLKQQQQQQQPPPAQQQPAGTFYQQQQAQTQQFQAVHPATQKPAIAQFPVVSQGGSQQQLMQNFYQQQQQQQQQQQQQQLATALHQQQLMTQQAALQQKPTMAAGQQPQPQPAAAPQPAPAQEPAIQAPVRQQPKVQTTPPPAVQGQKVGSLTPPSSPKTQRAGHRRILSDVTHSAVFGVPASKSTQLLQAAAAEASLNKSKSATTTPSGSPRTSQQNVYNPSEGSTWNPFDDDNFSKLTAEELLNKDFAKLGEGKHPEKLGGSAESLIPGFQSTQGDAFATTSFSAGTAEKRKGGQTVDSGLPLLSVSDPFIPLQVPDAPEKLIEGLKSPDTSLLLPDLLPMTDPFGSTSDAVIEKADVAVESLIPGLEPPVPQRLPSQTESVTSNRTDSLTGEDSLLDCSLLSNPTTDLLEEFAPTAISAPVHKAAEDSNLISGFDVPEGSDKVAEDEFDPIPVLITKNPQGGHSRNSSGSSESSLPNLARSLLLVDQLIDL

With CC(C)C[C@](C)(N)COc1ccc(-c2ccnc3cc(F)ccc23)nc1Cl [Example 136, (S)-1-((2-chloro-6-(7-fluoroquinolin-4-yl)pyridin-3-yl)oxy)-2,4-dimethylpentan-2-amine] as the molecule, how does the IC50 (GST-Xa-hAAK1) read?
Its IC50 is 4.8 nM.

With CCN(CC)CCNC(=O)c1c(C)[nH]c(/C=C2\C(=O)Nc3ccc(F)cc32)c1C [sunitinib] as the molecule, how does the “effect on HCV virion assembly” value (HCV [1]) read?
Its value is “reduced HCV virion assembly”.

What about the “effect on HCV entry” value (HCV [2]) of the same molecule?
Its value is “inhibit HCV entry”.

With COC(=O)[C@@]1(O)C[C@H]2O[C@]1(C)n1c3ccccc3c3c4c(c5c6ccccc6n2c5c31)C(=O)NC4 [Example K252a, K252a] as the molecule, how does the “effect on Neuregulin-1 induced neurite outgrowth” value (PC12 cells) read?
The value was “potentiation of Neuregulin-1 induced neurite outgrowth”.
